Structures can show the parent of a compound that is named as a salt.
Biological target: T1, AR in VCaP cells (Homo sapiens, UniProt P10275)
T1 construct: endogenous in cells; host or cells: VCaP cells
T1 sequence (P10275 1-920): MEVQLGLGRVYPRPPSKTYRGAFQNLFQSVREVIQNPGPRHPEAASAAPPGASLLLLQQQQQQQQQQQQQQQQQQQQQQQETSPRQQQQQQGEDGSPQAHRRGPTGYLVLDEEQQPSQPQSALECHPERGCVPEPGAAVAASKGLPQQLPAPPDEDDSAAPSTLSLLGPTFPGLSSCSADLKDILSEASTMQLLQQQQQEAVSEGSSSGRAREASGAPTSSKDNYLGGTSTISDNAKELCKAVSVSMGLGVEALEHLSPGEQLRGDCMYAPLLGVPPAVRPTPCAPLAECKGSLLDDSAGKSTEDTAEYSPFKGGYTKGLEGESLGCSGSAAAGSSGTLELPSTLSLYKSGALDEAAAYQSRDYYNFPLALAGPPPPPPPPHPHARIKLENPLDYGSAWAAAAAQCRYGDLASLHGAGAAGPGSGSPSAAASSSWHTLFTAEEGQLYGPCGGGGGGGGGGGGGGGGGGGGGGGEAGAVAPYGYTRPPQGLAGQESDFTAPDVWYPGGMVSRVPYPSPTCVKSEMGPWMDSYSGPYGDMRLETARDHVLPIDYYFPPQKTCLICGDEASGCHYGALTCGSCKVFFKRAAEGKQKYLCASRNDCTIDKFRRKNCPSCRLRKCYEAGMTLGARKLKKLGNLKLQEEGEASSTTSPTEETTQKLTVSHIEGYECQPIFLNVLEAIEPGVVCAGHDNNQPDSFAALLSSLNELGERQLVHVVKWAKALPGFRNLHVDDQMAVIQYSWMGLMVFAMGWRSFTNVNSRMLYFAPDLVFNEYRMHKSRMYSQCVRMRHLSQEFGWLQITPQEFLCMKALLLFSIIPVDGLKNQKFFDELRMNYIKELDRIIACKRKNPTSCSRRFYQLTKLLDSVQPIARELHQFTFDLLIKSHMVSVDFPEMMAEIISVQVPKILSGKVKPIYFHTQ
Assay: VCAP AR Degradation Assay (AR ELISA, 24 h)
Format: cell-based
Conditions: for DC50: concentration giving 50% AR degradation vs DMSO control; for remaining activity at up to 5 µM: lowest measured AR level normalized to DMSO control, top concentration 5 μM, read-out: Y
Procedure: VCAP AR Degradation Assay. Test compounds were pre-dispensed into a Corning CellBind 96-well clear bottom plate (Cat #3300) using an acoustic dispenser to make a 10-point concentration series at 1:3 dilution for each compound. The final top concentration of each compound was 5 μM. DMSO at a final concentration of 0.1% was used as a control. VCaP cells cultured in DMEM with 8% fetal bovine serum (FBS) were seeded at 50K cells per well in a 200 μL volume into the compound plate and incubated at 37° C. in a CO2 incubator for 24 h. The medium was carefully removed from the cells and the plate was placed on ice. One hundred μL of ice-cold 1× cell lysis buffer from Cell Signaling Technologies (Cat #9803) was added to each well of the cells and the plate was incubated at 4° C. on a shaker for 1 h. Fifteen μL of cell lysate was used for AR ELISA detection using a PathScan Total Sandwich AR ELISA kit (Cell Signaling Technology, Cat #12580). AR levels in compound-treated wells were normalized to that of DMSO control and expressed as percent of control (PoC) (y). A Four Parameter Logistic Model (Sigmoidal Dose-Response Model) was used to determine the compound's DC50, and EC50, using the following equation: […]
The lowest measured AR level normalized to DMSO control in response to compound treatment, termed Y value, was used to characterize the compound-mediated AR degradation efficiency.

SMILES | DC50 [nM] | remaining activity at up to 5 µM [%]
C[C@@H]1CN(CCO[C@H]2CC[C@H](N3C(=S)N(c4ccc(C#N)c(C(F)(F)F)c4)C(=O)C3(C)C)CC2)C[C@H](C)N1CC(=O)Nc1ccc(N2CCC(=O)NC2=O)nc1 [Cmpd 1, 2-((2R,6S)-4-(2-((trans-4-(3-(4-Cyano-3-(trifluoromethyl)phenyl)-5,5-dimethyl-4-oxo-2-thioxoimidazolidin-1-yl)cyclohexyl)oxy)ethyl)-2,6-dimethylpiperazin-1-yl)-N-(6-(2,4-dioxotetrahydropyrimidin-1(2H)-yl)pyridin-3-yl)acetamide] | 100 to 10000 | 30 to 70
C[C@@H]1CN(CCO[C@H]2CC[C@H](N3C(=S)N(c4ccc(C#N)c(C(F)(F)F)c4)C(=O)C3(C)C)CC2)C[C@H](C)N1CC(=O)Nc1ccc(C2CCC(=O)NC2=O)nc1 (stereo partly drawn) [Cmpd 2, 2-((2R,6S)-4-(2-((trans-4-(3-(4-Cyano-3-(trifluoromethyl)phenyl)-5,5-dimethyl-4-oxo-2-thioxoimidazolidin-1-yl)cyclohexyl)oxy)ethyl)-2,6-dimethylpiperazin-1-yl)-N-(6-(2,6-dioxopiperidin-3-yl)pyridin-3-yl)acetamide hydrochloride] | 5 to 10 | 30 to 70
C[C@@H]1CN(CCC[C@H]2CC[C@H](N3C(=S)N(c4ccc(C#N)c(C(F)(F)F)c4)C(=O)C3(C)C)CC2)C[C@H](C)N1CC(=O)Nc1ccc(C2CCC(=O)NC2=O)nc1 (stereo partly drawn) [Cmpd 3, 2-((2R,6S)-4-(3-(trans-4-(3-(4-Cyano-3-(trifluoromethyl)phenyl)-5,5-dimethyl-4-oxo-2-thioxoimidazolidin-1-yl)cyclohexyl)propyl)-2,6-dimethylpiperazin-1-yl)-N-(6-(2,6-dioxopiperidin-3-yl)pyridin-3-yl)acetamide] | 5 to 10 | 30 to 70
C[C@@H]1CN(CCCO[C@H]2CC[C@H](N3C(=S)N(c4cnc(C#N)c(C(F)(F)F)c4)C(=O)C3(C)C)CC2)C[C@H](C)N1CC(=O)Nc1ccc(C2CCC(=O)NC2=O)nc1 (stereo partly drawn) [Cmpd 4, 2-((2R,6S)-4-(3-((trans-4-(3-(6-Cyano-5-(trifluoromethyl)pyridin-3-yl)-5,5-dimethyl-4-oxo-2-thioxoimidazolidin-1-yl)cyclohexyl)oxy)propyl)-2,6-dimethylpiperazin-1-yl)-N-(6-(2,6-dioxopiperidin-3-yl)pyridin-3-yl)acetamide hydrochloride] | ≤ 5 | 20 to 30
C[C@@H]1CN(CCCO[C@H]2CC[C@H](N3C(=S)N(c4ccc(C#N)c(C(F)(F)F)c4)C(=O)C3(C)C)CC2)C[C@H](C)N1CC(=O)Nc1ccc(C2CCC(=O)NC2=O)nc1 (stereo partly drawn) [Cmpd 5, 2-((2R,6S)-4-(3-((trans-4-(3-(4-Cyano-3-(trifluoromethyl)phenyl)-5,5-dimethyl-4-oxo-2-thioxoimidazolidin-1-yl)cyclohexyl)oxy)propyl)-2,6-dimethylpiperazin-1-yl)-N-(6-(2,6-dioxopiperidin-3-yl)pyridin-3-yl)acetamide hydrochloride] | ≤ 5 | 20 to 30
C[C@@H]1CN(CCO[C@H]2CC[C@H](N3C(=S)N(c4cnc(C#N)c(Cl)c4)C(=O)C3(C)C)CC2)C[C@H](C)N1CC(=O)Nc1ccc(C2CCC(=O)NC2=O)nc1 (stereo partly drawn) [Cmpd 6, 2-((2R,6S)-4-(2-((trans-4-(3-(5-Chloro-6-cyanopyridin-3-yl)-5,5-dimethyl-4-oxo-2-thioxoimidazolidin-1-yl)cyclohexyl)oxy)ethyl)-2,6-dimethylpiperazin-1-yl)-N-(6-(2,6-dioxopiperidin-3-yl)pyridin-3-yl)acetamide hydrochloride] | ≤ 5 | 20 to 30
C[C@@H]1CN(CCCO[C@H]2CC[C@H](N3C(=S)N(c4ccc(C#N)c(Cl)c4)C(=O)C3(C)C)CC2)C[C@H](C)N1CC(=O)Nc1ccc(C2CCC(=O)NC2=O)nc1 (stereo partly drawn) [Cmpd 7, 2-((2R,6S)-4-(3-((trans-4-(3-(3-Chloro-4-cyanophenyl)-5,5-dimethyl-4-oxo-2-thioxoimidazolidin-1-yl)cyclohexyl)oxy)propyl)-2,6-dimethylpiperazin-1-yl)-N-(6-(2,6-dioxopiperidin-3-yl)pyridin-3-yl)acetamide hydrochloride] | ≤ 5 | 0 to 20
C[C@@H]1CN(CCC[C@H]2CC[C@H](N3C(=S)N(c4cnc(C#N)c(C(F)(F)F)c4)C(=O)C3(C)C)CC2)C[C@H](C)N1CC(=O)Nc1ccc(C2CCC(=O)NC2=O)nc1 (stereo partly drawn) [Cmpd 8, 2-((2R,6S)-4-(3-(trans-4-(3-(6-Cyano-5-(trifluoromethyl)pyridin-3-yl)-5,5-dimethyl-4-oxo-2-thioxoimidazolidin-1-yl)cyclohexyl)propyl)-2,6-dimethylpiperazin-1-yl)-N-(6-(2,6-dioxopiperidin-3-yl)pyridin-3-yl)acetamide hydrochloride] | ≤ 5 | 20 to 30
C[C@@H]1CN(CCO[C@H]2CC[C@H](N3C(=S)N(c4ccc(C#N)c(C(F)(F)F)c4)C(=O)C3(C)C)CC2)C[C@H](C)N1CCC(=O)Nc1ccc(N2CCC(=O)NC2=O)nc1 [Cmpd 9, 3-((2R,6S)-4-(2-((trans-4-(3-(4-Cyano-3-(trifluoromethyl)phenyl)-5,5-dimethyl-4-oxo-2-thioxoimidazolidin-1-yl)cyclohexyl)oxy)ethyl)-2,6-dimethylpiperazin-1-yl)-N-(6-(2,4-dioxotetrahydropyrimidin-1(2H)-yl)pyridin-3-yl)propanamide] | 10 to 100 | 30 to 70
C[C@@H]1CN(CCC[C@H]2CC[C@H](N3C(=S)N(c4ccc(C#N)c(Cl)c4)C(=O)C3(C)C)CC2)C[C@H](C)N1CC(=O)Nc1ccc(C2CCC(=O)NC2=O)nc1 (stereo partly drawn) [Cmpd 10, 2-((2R,6S)-4-(3-(trans-4-(3-(3-Chloro-4-cyanophenyl)-5,5-dimethyl-4-oxo-2-thioxoimidazolidin-1-yl)cyclohexyl)propyl)-2,6-dimethylpiperazin-1-yl)-N-(6-(2,6-dioxopiperidin-3-yl)pyridin-3-yl)acetamide hydrochloride] | 10 to 100 | 30 to 70
C[C@@H]1CN(CCC[C@H]2CC[C@H](N3C(=S)N(c4cnc(C#N)c(Cl)c4)C(=O)C3(C)C)CC2)C[C@H](C)N1CC(=O)Nc1ccc(C2CCC(=O)NC2=O)nc1 (stereo partly drawn) [Cmpd 11, 2-((2S,6R)-4-(3-(trans-4-(3-(5-Chloro-6-cyanopyridin-3-yl)-5,5-dimethyl-4-oxo-2-thioxoimidazolidin-1-yl)cyclohexyl)propyl)-2,6-dimethylpiperazin-1-yl)-N-(6-(2,6-dioxopiperidin-3-yl)pyridin-3-yl)acetamide hydrochloride] | ≤ 5 | 20 to 30
C[C@@H]1CN(CCCO[C@H]2CC[C@H](N3C(=S)N(c4ccc(C#N)c(C(F)(F)F)c4)C(=O)C3(C)C)CC2)C[C@H](C)N1CC(=O)Nc1ccc(N2CCC(=O)NC2=O)nc1 [Cmpd 12, 2-((2R,6S)-4-(3-((trans-4-(3-(4-Cyano-3-(trifluoromethyl)phenyl)-5,5-dimethyl-4-oxo-2-thioxoimidazolidin-1-yl)cyclohexyl)oxy)propyl)-2,6-dimethylpiperazin-1-yl)-N-(6-(2,4-dioxotetrahydropyrimidin-1(2H)-yl)pyridin-3-yl)acetamide hydrochloride] | 100 to 10000 | 30 to 70
CC1(C)C(=O)N(c2ccc(C#N)c(C(F)(F)F)c2)C(=S)N1[C@H]1CC[C@H](OCCN2CCN(CC(=O)Nc3ccc(C4CCC(=O)NC4=O)nc3)[C@@H](C(F)(F)F)C2)CC1 (stereo partly drawn) [Cmpd 13, 2-((R)-4-(2-((trans-4-(3-(4-Cyano-3-(trifluoromethyl)phenyl)-5,5-dimethyl-4-oxo-2-thioxoimidazolidin-1-yl)cyclohexyl)oxy)ethyl)-2-(trifluoromethyl)piperazin-1-yl)-N-(6-(2,6-dioxopiperidin-3-yl)pyridin-3-yl)acetamide hydrochloride] | 5 to 10 | 20 to 30

Reference: patent US20240374591A1, “CEREBLON BINDING COMPOUNDS, COMPOSITIONS THEREOF, AND METHODS OF TREATMENT THEREWITH” (CELGENE CORPORATION, priority 2021, published 2024)
